Data reported in paper PMC9917023, “Stabilization of Monomeric Tau Protein by All D-Enantiomeric Peptide Ligands as Therapeutic Strategy for Alzheimer’s Disease and Other Tauopathies” (International Journal of Molecular Sciences, 2023).
Non-standard residues stand in square brackets, D forms with d. Residues, ends and D or L forms follow the SMILES beside them.

How the values were obtained:
full-length tau 441 = biological target: T1, full-length tau 441 (Homo sapiens, UniProt P10636); experiment: Thioflavin-T assay of heparin-induced tau aggregation; assay type: biochemical
T1 construct: The gene for the human full-length tau was prepared on a plasmid called pET28a(+)-tau2N4R; made in house; host or cells: E. coli pRare
T1 sequence (P10636 1-441 isoform P10636-8): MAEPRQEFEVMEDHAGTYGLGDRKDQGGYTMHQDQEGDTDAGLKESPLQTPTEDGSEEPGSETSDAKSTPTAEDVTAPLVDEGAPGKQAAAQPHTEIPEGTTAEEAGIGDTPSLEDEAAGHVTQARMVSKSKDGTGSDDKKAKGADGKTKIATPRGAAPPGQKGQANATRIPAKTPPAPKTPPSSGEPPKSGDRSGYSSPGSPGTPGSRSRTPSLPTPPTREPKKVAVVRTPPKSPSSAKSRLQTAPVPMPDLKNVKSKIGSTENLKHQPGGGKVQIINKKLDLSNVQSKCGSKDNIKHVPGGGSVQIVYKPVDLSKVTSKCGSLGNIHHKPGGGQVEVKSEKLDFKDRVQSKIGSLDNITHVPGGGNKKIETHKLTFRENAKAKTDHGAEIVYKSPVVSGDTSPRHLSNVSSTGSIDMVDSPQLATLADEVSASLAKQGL
Description: Figure 5 Tau aggregation-influencing effect of TF2D-5 and TF2D-5a. The ThT assay was performed in a FLUOstar plate reader from BMG Labtech. Twenty-five micrometers recombinant full-length tau 441 was mixed with 12.5 µM heparin, 200 µM DTT, 0.05% NaN3, and […]. Compounds were added with a concentration of 25 µM. The total volume was adjusted to 100 µL with PBS pH 7.4, and the plate was measured with bottom optics. The experiment ran at 37 °C with measurement intervals of 20 min. Before each measurement, the plate was shaken for 15 s at 300 rpm. A 3 mm borosilicate bead was added to each well. (A) The effect of TF2D-5 when added at different time points during the ThT assay. When added at the start of the experiment no aggregation can be observed for the duration of the experiment (green). […] (B) The addition of TF2D-5a to the sample inhibits tau aggregation during the complete experiment which equals a lag time increase of at least 400% (blue). […] CP1 was obtained by randomizing the amino acid residue composition of TF2D-5.
To investigate whether TF2D-5 and TF2D-5a induce an extension of the lag time of tau aggregation, we performed a ThT experiment with sub-stoichiometric D-peptide concentrations. For this, we used tau that was produced according to the protocol in the Section 4. Twenty-five micrometers of full-length tau was incubated with 6.25 µM, 12.5 µM 25 µM, 50 µM, and 100 µM of D-peptides. As expected, we observed an increase in the lag time of the full-length tau aggregation with the increasing D-peptide concentrations. […] The addition of 6.25 µM of TF2D-5a shifted the lag time by about 60 h (a 200% increase).
ThT assays to characterize the aggregation inhibition properties of the selected compounds were conducted as follows. All measurements were performed in a FLUOstar plate reader (BMG, Offenburg, Germany). Recombinant full-length tau 441 (25 µM) was mixed with heparin (12.5 µM), DTT (200 µM), NaN3 (0.05%), and ThT (20 µM). […] The compounds were added with a maximum concentration of 25 µM. The total volume was adjusted to 100 µL with PBS pH 7.4, and the plate (Corning, New York, NY, USA) was measured with bottom optics. A 3 mm borosilicate bead (Hilgenberg GmbH, Malsfeld, Germany) was added to each well. The experiment ran at 37 °C, with measurement intervals of 20 min. Before each measurement, the plate was shaken for 15 s at 300 rpm.

[1] = Stability in simulated gastric fluid; assay type: in vitro ADME; details: SGF: 2 mg/mL NaCl, 3.2 mg/mL pepsin, 80 mM HCl, pH 1; 8 h
Description: (§1) Figure 12 Stability assay of TF2D-5 and TF2D-5a using different simulated human body fluids. (A) Stability of compounds in simulated gastric fluid (SGF). The simulated gastric fluid consisted of 2 mg/mL sodium chloride, 3.2 mg/mL pepsin, and 80 mM HCl; pH 1. (B) Stability of TF2D-5 and TF2D-5a in simulated intestinal fluid (SIF). Simulated intestinal fluid consisted of 6.8 mg/mL potassium dihydrogen phosphate, 10 mg/mL pancreas powder, and 15.4 mM NaOH; pH 6.8. (C) Stability of TF2D-5 and TF2D-5a in human blood plasma. K3EDTA human blood plasma was purchased from BioTrend. (D) Stability of TF2D-5 and TF2D-5a in human liver microsomes. Human liver microsomes consisted of 6 mg/mL protein (containing Cytochrome P450 (CYP) enzymes), 75 mM sucrose, 1.3 mM NADPH, 3.3 mM D-glucose-6-phosphat, 0.2 u/mL D-glucose-6-phosphat dehydrogenase, 3.3 mM magnesium chloride, and 100 mM potassium phosphate; pH 7.4.
(§2) The stability of the compounds was tested according to Elfgen et al. and Schemmert et al. Exceptions included the extraction of plasma, simulated gastric fluid (SGF), and simulated intestinal fluid (SIF) samples. These were obtained by the addition of 12.5 µL 0.35 M ZnSO4, followed by vortexing, the addition of 12.5 µL 0.5 M HCl, additional vortexing, and centrifugation at 14,000× g for 10 min at 4 °C.

[2] = system: brain endothelial cells (RBMVEC) and astroglial cells (CTX TNA2)
Description: Each peptide was tested at different time points in triplicate next to an unseeded negative control (“Empty”) and quantitatively analyzed via HPLC using a calibration curve to determine the concentration of the peptide in the receiving chamber at each point in time (Figure 11). From these values, the volume of each chamber, and the respective time, a Papp permeability coefficient in cm²/s was calculated for each substance to represent its ability to cross the in vitro blood–brain barrier model.
An amount equaling 1 mg/mL TF2D-5 (A) or TF2D-5a (B) was added to an insert that was seeded and covered with endothelial and astroglial cells, representing the in vitro blood–brain barrier, or an empty insert serving as a control. After different time points, samples were taken and analyzed by quantitative HPLC analysis. Data given as mean ± SD out of three independent replicates.
Brain endothelial cells from rats and astroglial cells were used to cultivate the different sides of the porous membrane.
Brain endothelial cells from rats (RBMVEC, Cell Applications Inc., R840-05a, San Diego, CA, USA) were cultivated in Complete Classic medium (Cell Systems, Kirkland, WA, USA, 4Z0-500), and rat astroglial cells (CTX TNA2, ATCC, CRL-2006) were cultivated in Complete Classic medium (Cell Systems, Kirkland, WA, USA, 4Z0-500). The cells were allowed to grow in a humidified incubator with 5% CO2 at 37 °C and a maximum of 20 passages. The cells were passaged every 3 to 5 days, according to their confluence.
In order to set up the in vitro BBB model, the astroglial cells were seeded at a density of 600.000 cells/cm² on the outer (basolateral, “brain”) side of an insert with a porous membrane (Corning Transwell polycarbonate membrane cell culture inserts, CLS3415, 3 µM pore size) and allowed to grow/adhere overnight in the Complete Classic medium. The next day, brain endothelial cells were seeded at a density of 600.000 cells/cm² on the inner side (apical, “blood”) of the corresponding membrane. The seeded inserts were then cultivated to grow to full confluence over a period of 5 to 7 days, with the medium renewed daily. […] Prior to this, TEER (transendothelial electrical resistance values) were measured in each well to ensure the integrity of the in vitro BBB. At 0, 30, 60, 90, 120, 150, 180, and 240 min, 50 µL of the medium out of the outer chamber was taken and analyzed by HPLC. This 50 µL would then be replaced by the same amount of fresh serum-free medium to keep the fluid levels equal across both chambers. This slight dilution was factored into the following calculations. Furthermore, a dilution series of each reagent was analyzed alongside the samples as a calibration to quantify the analysis. […] The Papp values were calculated as follows (higher is better): Papp =(V/A∗C)∗(Dc/Dt)

PC12 cells = experiment: Cell-viability assay (MTT); assay type: cell-based, rat; details: 0.2, 1 and 5 µM, 24 h, 37 °C
Description: (§3) Human […] SH-SY5Y cells and rat pheochromocytoma PC12 cells were cultivated in RPMI medium with 10% fetal bovine serum and 5% horse serum. On a collagen-coated 96-well plate (Gibco, Life Technology, Carlsbad, CA, USA), 10.000 cells were seeded per well. The plate was incubated for 24 h at 37 °C and 5% CO2. TF2D-5 and TF2D-5a were added to the cells at concentrations of 0.2 µM, 1 µM, and 5 µM, respectively. As a positive control, 0.1% Trion X-100 was used. A medium was used as a negative control. The samples were incubated for a further 24 h at 37 °C and 5% CO2. Cell viability was determined by using the Cell Proliferation Kit 1 (MTT) (Roche, Basel, Switzerland) according to the instruction manual. The absorbance of generated formazan products was measured using a CLARIOstar plate reader (BMG, Offenburg, Germany). Absorption at 570 nm was measured and referenced against absorbance at 660 nm.
(§4) Figure S3. Peptide toxicity assay for different concentrations of TF2D -5 and TF2D-5a.
(§5) For this assay the compounds TF2D -5 and TF2D-5a were incubated on SHSY5Y and PC12 cells for 24 h at 37 °C and 5 % CO2. The “Cell Proliferation Kit 1” from Roche was used for the MTT assay. RPMI with 10 % HS and 5 % FBS was used as cell medium. As […] 0.1 % Triton X100 was used. For both assays no negative effect on the cell viability could be observed by addition of both compounds. […]

[3] = Stability in simulated intestinal fluid; assay type: in vitro ADME
Description: as §1, §2

SH-SY5Y cells = experiment: Cell-viability assay (MTT); assay type: cell-based, human; details: 0.2, 1 and 5 µM, 24 h, 37 °C
Description: as §3, §4, §5

[4] = 6.25 µM D-peptide, 25 µM full-length tau

| lag time increase (full-length tau 441; [4]) [%] | lag time increase (full-length tau 441; 12.5 µM D-peptide, 25 µM full-length tau) [%] | stability in simulated gastric fluid [1] | Papp permeability coefficient [2] [×10⁻⁶ cm/s] | stability in simulated intestinal fluid ([3]; SIF: 6.8 mg/mL KH2PO4, 10 mg/mL pancreas powder, 15.4 mM NaOH, pH 6.8) | lag time increase (full-length tau 441; 25 µM compound, 25 µM tau 441, added at start) | metabolised at 8 h ([3]; simulated intestinal fluid with pancreas powder, SIF pH 6.8, 10 mg/mL pancreas powder, after about 8 h, read-out: decrease of level in simulated intestinal fluid) [%] | SMILES | toxicity (cell viability, MTT) (PC12 cells) | toxicity (cell viability, MTT) (SH-SY5Y cells) |
| --- | --- | --- | --- | --- | --- | --- | --- | --- | --- |
| 100 | 200 | very stable in simulated gastric fluid | 3.6 | stable in simulated intestinal fluid | – | – | CC[C@@H](C)[C@@H](NC(=O)[C@@H](Cc1c[nH]cn1)NC(=O)CNC(=O)CNC(=O)[C@H]1CCCN1C(=O)[C@H](NC(=O)[C@@H](CCCCN)NC(=O)[C@@H](Cc1ccccc1)NC(=O)[C@@H](CC(C)C)NC(=O)[C@H](NC(=O)[C@@H](CCC(N)=O)NC(=O)[C@@H](Cc1ccc(O)cc1)NC(=O)CNC(=O)CNC(=O)[C@H](N)CC(=O)O)[C@H](C)CC)[C@H](C)CC)C(=O)N[C@H](Cc1c[nH]cn1)C(N)=O [TF2D-5] (H-[dD]GG[dY][dQ][dI][dL][dF][dK][dI][dP]GG[dH][dI][dH]-NH2) | not toxic | not toxic |
| 200 | – | very stable in simulated gastric fluid | 48 | – | at least 400% | 27.8 | CC[C@@H](C)[C@@H](NC(=O)[C@@H](Cc1c[nH]cn1)NC(=O)CNC(=O)CNC(=O)[C@H]1CCCN1C(=O)[C@H](NC(=O)[C@@H](CCCCN)NC(=O)[C@@H](Cc1ccccc1)NC(=O)[C@@H](CC(C)C)NC(=O)[C@H](NC(=O)[C@@H](CCC(N)=O)NC(=O)[C@@H](Cc1ccc(O)cc1)NC(=O)CNC(=O)CNC(=O)[C@H](N)CC(=O)O)[C@H](C)CC)[C@H](C)CC)C(=O)N[C@H](Cc1c[nH]cn1)C(=O)N[C@H](CCCNC(=N)N)C(=O)N[C@H](CCCNC(=N)N)C(=O)N[C@H](CCCNC(=N)N)C(=O)N[C@H](CCCNC(=N)N)C(=O)N[C@H](CCCNC(=N)N)C(N)=O [TF2D-5a] (H-[dD]GG[dY][dQ][dI][dL][dF][dK][dI][dP]GG[dH][dI][dH][dR][dR][dR][dR][dR]-NH2) | not toxic | not toxic |
